Laboratory results published in patent US6737383B1, “Herbicidal oxadiazolidines” (priority 1999, dated 2004).

Experiments:
bedstraw = experiment: Test B pre/postemergence bedstraw; type: in vivo, Galium aparine
Outline: (§1)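 Herbicidal effect was estimated by eye on a ten-point control scale after plants spent twelve to sixteen days in a greenhouse following soil or foliar treatment. Foliar sprays targeted plants at one to four leaves; all doses were formulated in a non-phytotoxic solvent with surfactant.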

blackgrass = experiment: Test B pre/postemergence blackgrass; type: in vivo, Alopecurus myosuroides
Outline: as §1

surinam grass = experiment: Test B pre/postemergence surinam grass; type: in vivo, Brachiaria decumbens
Outline: as §1

cocklebur = experiment: Test B pre/postemergence cocklebur; type: in vivo, Xanthium strumarium
Outline: as §1

crabgrass = experiment: Test B pre/postemergence crabgrass; type: in vivo, Digitaria sanguinalis
Outline: as §1

giant foxtail = experiment: Test B pre/postemergence giant foxtail; type: in vivo, Setaria faberii
Outline: as §1

morningglory = experiment: Test B pre/postemergence morningglory; type: in vivo, Ipomoea hederacea
Outline: as §1

pigweed = experiment: Test B pre/postemergence pigweed; type: in vivo, Amaranthus retroflexus
Outline: as §1

sugar beet = experiment: Test B pre/postemergence sugar beet; type: in vivo, Beta vulgaris; settings: for Plant response rating, Sugarbeets: Rate 250 g/ha
Outline: as §1

velvetleaf = experiment: Test B pre/postemergence velvetleaf; type: in vivo, Abutilon theophrasti; settings: for Plant response rating, Velvetleaf: Rate 250 g/ha
Outline: as §1

wheat = experiment: Test B pre/postemergence wheat; type: in vivo, Triticum aestivum; settings: for Plant response rating, Wheat: Rate 250 g/ha
Outline: as §1

wild oat = experiment: Test B pre/postemergence wild oat; type: in vivo, Avena fatua; settings: for Plant response rating, Wild oats: Rate 250 g/ha
Outline: as §1

purple nutsedge = experiment: Test B pre/postemergence purple nutsedge; type: in vivo, Cyperus rotundus
Outline: as §1

rice = experiment: Test B flood test rice; type: in vivo, Oryza sativa
Outline: (§2)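 Plants were grown to the 2-leaf stage before treatment with test chemical, then held in a greenhouse for twelve to sixteen days. Injury was visually rated against untreated controls on a 0–10 scale, where 0 is no effect and 10 is complete control.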

duck salad = experiment: Test B flood test duck salad; type: in vivo, Heteranthera limosa
Outline: as §2

bamyardgrass = experiment: Test B flood test barnyardgrass; type: in vivo, Echinochloa crus-galli
Outline: as §2

[1] = Postemergence, Rate 62 g/ha, scale 0 to 10, 0 is no effect, 10 is complete control
[2] = Postemergence, Rate 250 g/ha, scale 0 to 10, 0 no effect, 10 complete control
[3] = Preemergence, Rate 62 g/ha, scale 0 to 10 (0 no effect, 10 complete control)
[4] = Preemergence, Rate 125 g/ha, scale 0 to 10 (0 no effect, 10 complete control)
[5] = Preemergence, Rate 250 g/ha, scale of 0 to 10 where 0 is no effect and 10 is complete control
[6] = Preemergence, Rate 500 g/ha, scale 0 to 10 (0 no effect, 10 complete control)
[7] = Rate 125 g/ha, Postemergence, scale 0 to 10, 0 no effect, 10 complete control
[8] = Rate 500 g/ha, Postemergence, scale 0 to 10, 0 no effect, 10 complete control
[9] = Postemergence, Rate 125 g/ha, scale of 0 to 10 where 0 is no effect and 10 is complete control
[10] = Rate 62 g/ha, Postemergence, scale of 0 to 10 where 0 is no effect and 10 is complete control
[11] = Preemergence, Rate 125 g/ha, 0 is no effect, 10 is complete control
[12] = Preemergence, scale of 0 to 10 where 0 is no effect and 10 is complete control
[13] = Postemergence, scale 0 to 10, 0 is no effect, 10 is complete control
[14] = Postemergence (flood test species), Rate 125 g/ha, scale of 0 to 10 where 0 is no effect and 10 is complete control
[15] = Rate 62 g/ha, Postemergence section, flood test species, scale of 0 to 10 where 0 is no effect and 10 is complete control
[16] = Rate 500 g/ha, listed under Postemergence (flood test species), scale 0 to 10, 0 no effect, 10 complete control
[17] = flood test, listed under Postemergence, Rate 250 g/ha, scale 0 to 10, 0 no effect, 10 complete control

CC(C)N(C(=O)n1oc(=O)n(Cc2ccccc2)c1=O)c1ccc(Cl)cc1 [Compound 106]
3: Bedstraw plant response rating (bedstraw; [2]) | Plant response rating, Bedstraw (bedstraw; [5]) | Blackgrass plant response rating (blackgrass; [8]) | Crabgrass plant response rating (crabgrass; [2]) | Giant foxtail plant response rating (giant foxtail; [2]) | Giant foxtail plant response rating (giant foxtail; [8])
10: Plant response rating, Giant foxtail (giant foxtail; [5]) | Giant foxtail plant response rating (giant foxtail; [6]) | Morningglory plant response rating (morningglory; [8])
5: Plant response rating, Giant foxtail (giant foxtail; [4])
0: Bedstraw plant response rating (bedstraw; [1]) | Bedstraw plant response rating (bedstraw; [3]) | Plant response rating, Bedstraw (bedstraw; [4]) | Bedstraw plant response rating (bedstraw; [7]) | Blackgrass plant response rating (blackgrass; [9]) | Blackgrass plant response rating (blackgrass; [3]) | Plant response rating, Blackgrass (blackgrass; [4]) | Plant response rating, Blackgrass (blackgrass; [5]) | Blackgrass plant response rating (blackgrass; [10]) | B. signalgrass plant response rating (surinam grass; [1]) | B. signalgrass plant response rating (surinam grass; [2]) | B. signalgrass plant response rating (surinam grass; [3]) | Plant response rating, B. signalgrass (surinam grass; [4]) | Plant response rating, B. signalgrass (surinam grass; [5]) | B. signalgrass plant response rating (surinam grass; [7]) | B. signalgrass plant response rating (surinam grass; Rate 500 g/ha, Postemergence, scale of 0 to 10 where 0 is no effect and 10 is complete control) | Cocklebur plant response rating (cocklebur; [3]) | Plant response rating, Cocklebur (cocklebur; [4]) | Plant response rating, Cocklebur (cocklebur; [5]) | Cocklebur plant response rating (cocklebur; [6]) | Cocklebur plant response rating (cocklebur; [10]) | Crabgrass plant response rating (crabgrass; [9]) | Crabgrass plant response rating (crabgrass; [3]) | Plant response rating, Crabgrass (crabgrass; [4]) | Crabgrass plant response rating (crabgrass; [10]) | Giant foxtail plant response rating (giant foxtail; [10]) | Morningglory plant response rating (morningglory; [3]) | Plant response rating, Morningglory (morningglory; [4]) | Plant response rating, Morningglory (morningglory; [5]) | Morningglory plant response rating (morningglory; [6]) | Redroot pigweed plant response rating (pigweed; [9]) | Redroot pigweed plant response rating (pigweed; [3]) | Plant response rating, Redroot pigweed (pigweed; [4]) | Plant response rating, Redroot pigweed (pigweed; [5]) | Redroot pigweed plant response rating (pigweed; [10]) | Plant response rating, Redroot pigweed (pigweed; Rate 250 g/ha, Postemergence, scale 0 to 10, 0 is no effect, 10 is complete control) | Sugarbeets plant response rating (sugar beet; [9]) | Sugarbeets plant response rating (sugar beet; [3]) | Sugarbeets plant response rating (0 to 10 scale) (sugar beet; [11]) | Plant response rating, Sugarbeets (sugar beet; [12]) | Sugarbeets plant response rating (sugar beet; [10]) | Plant response rating, Sugarbeets (sugar beet; [13]) | Sugarbeets plant response rating (sugar beet; [8]) | Velvetleaf plant response rating (velvetleaf; [9]) | Velvetleaf plant response rating (velvetleaf; [3]) | Velvetleaf plant response rating (0 to 10 scale) (velvetleaf; [11]) | Plant response rating, Velvetleaf (velvetleaf; [12]) | Velvetleaf plant response rating (velvetleaf; [6]) | Velvetleaf plant response rating (velvetleaf; [10]) | Wheat plant response rating (wheat; [9]) | Wheat plant response rating (wheat; [3]) | Wheat plant response rating (0 to 10 scale) (wheat; [11]) | Plant response rating, Wheat (wheat; [12]) | Wheat plant response rating (wheat; [6]) | Wheat plant response rating (wheat; [10]) | Plant response rating, Wheat (wheat; [13]) | Wheat plant response rating (wheat; [8]) | Wild oats plant response rating (wild oat; [9]) | Wild oats plant response rating (wild oat; [3]) | Wild oats plant response rating (0 to 10 scale) (wild oat; [11]) | Plant response rating, Wild oats (wild oat; [12]) | Wild oats plant response rating (wild oat; [6]) | Wild oats plant response rating (wild oat; [10]) | Plant response rating, Wild oats (wild oat; [13]) | Wild oats plant response rating (wild oat; [8]) | Nutsedge plant response rating (purple nutsedge; [9]) | Nutsedge plant response rating (purple nutsedge; [2]) | Nutsedge plant response rating (purple nutsedge; [3]) | Plant response rating, Nutsedge (purple nutsedge; [4]) | Plant response rating, Nutsedge (purple nutsedge; [5]) | Nutsedge plant response rating (purple nutsedge; [6]) | Nutsedge plant response rating (purple nutsedge; [10]) | Nutsedge plant response rating (purple nutsedge; [8]) | Rice plant response rating (rice; [14]) | Rice plant response rating (rice; [15]) | Plant response rating, Rice (rice; Rate 250 g/ha, Postemergence (flood test), scale 0 to 10, 0 is no effect, 10 is complete control) | Rice plant response rating (rice; [16]) | Ducksalad plant response rating (duck salad; [14]) | Ducksalad plant response rating (duck salad; [15]) | Ducksalad plant response rating (duck salad; [16]) | Ducksalad plant response rating (duck salad; [17]) | Barnyardgrass plant response rating (bamyardgrass; [1]) | Barnyardgrass plant response rating (bamyardgrass; Rate 125 g/ha, Postemergence section (flood test species), scale 0 to 10, 0 no effect, 10 complete control) | Barnyardgrass plant response rating (bamyardgrass; [16]) | Barnyardgrass plant response rating (bamyardgrass; [17])
4: Bedstraw plant response rating (bedstraw; [6]) | Cocklebur plant response rating (cocklebur; [8]) | Redroot pigweed plant response rating (pigweed; [6])
1: Blackgrass plant response rating (blackgrass; [2])
2: Blackgrass plant response rating (blackgrass; [6]) | B. signalgrass plant response rating (surinam grass; [6]) | Cocklebur plant response rating (cocklebur; [9]) | Cocklebur plant response rating (cocklebur; [2]) | Giant foxtail plant response rating (giant foxtail; [9]) | Giant foxtail plant response rating (giant foxtail; [3]) | Sugarbeets plant response rating (sugar beet; [6]) | Plant response rating, Velvetleaf (velvetleaf; [13]) | Velvetleaf plant response rating (velvetleaf; [8])
7: Bedstraw plant response rating (bedstraw; [8]) | Morningglory plant response rating (morningglory; [9])
6: Crabgrass plant response rating (crabgrass; [8]) | Morningglory plant response rating (morningglory; [10]) | Redroot pigweed plant response rating (pigweed; [8])
8: Plant response rating, Crabgrass (crabgrass; [5]) | Crabgrass plant response rating (crabgrass; [6]) | Morningglory plant response rating (morningglory; [2])
